The target in one experiment is T1, Adenosylhomocysteinase (Rattus norvegicus, UniProt P10760).
T1 sequence (P10760 whole entry): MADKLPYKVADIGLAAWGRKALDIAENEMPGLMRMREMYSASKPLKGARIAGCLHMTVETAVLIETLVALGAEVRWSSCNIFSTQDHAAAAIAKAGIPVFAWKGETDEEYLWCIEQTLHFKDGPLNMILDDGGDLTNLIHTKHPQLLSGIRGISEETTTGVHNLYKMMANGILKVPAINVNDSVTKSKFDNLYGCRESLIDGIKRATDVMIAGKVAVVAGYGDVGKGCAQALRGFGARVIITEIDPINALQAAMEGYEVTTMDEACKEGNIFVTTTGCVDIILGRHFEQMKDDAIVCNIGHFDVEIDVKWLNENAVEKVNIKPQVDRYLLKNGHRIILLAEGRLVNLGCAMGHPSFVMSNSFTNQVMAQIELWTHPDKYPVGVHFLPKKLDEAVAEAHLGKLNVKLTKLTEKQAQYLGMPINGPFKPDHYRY
The experiment is described as follows: Compound was tested for its inhibitory activity against recombinant rat liver S-adenosyl-homocysteine hydrolase.

Experiment [1] addresses T2, Adenosylhomocysteinase (Rattus norvegicus) (UniProt P10760).
T2 sequence (whole entry): T1 sequence (P10760 whole entry)
Description: (§1) Rate constant was evaluated against S-adenosyl-homocysteine hydrolase

Experiment [2] concerns the target T2, Adenosylhomocysteinase (Rattus norvegicus). The source holds these as a separate data set.
Description: as §1

The term Ki denotes the equilibrium dissociation constant of an inhibitor or competing ligand from its target.

Take `Nc1ncnc2c1ncn2[C@@H]1O/C(=C\F)[C@@H](O)[C@H]1O`: the Ki at Adenosylhomocysteinase stood at 39 nM. Also, the k2 in experiment [1] worked out at 0.082 min⁻¹.

On to `Nc1ncnc2c1ncn2[C@@H]1O/C(=C/F)[C@@H](O)[C@H]1O`, for which, on Adenosylhomocysteinase, the Ki came to 40 nM. In experiment [1], the k2 was 0.05 min⁻¹.

On to `Nc1ncnc2c1ncn2[C@@H]1C/C(=C\F)[C@@H](O)[C@H]1O`, for which, at Adenosylhomocysteinase, the Ki worked out at 87 nM. Further, in experiment [1], the k2 amounted to 0.05 min⁻¹.

Regarding `Nc1ncnc2c1ncn2[C@@H]1C/C(=C/F)[C@@H](O)[C@H]1O`, the k2 in experiment [2] was found to be 0.031 min⁻¹. In addition, the Ki on Adenosylhomocysteinase worked out at 112 nM.

The record behind these values is ChEMBL document CHEMBL1151008, “Synthesis and evaluation of 4-5-dehydro-5-fluoroaristeromycins as S-adenosyl-L-homocysteine (AdoHcy) hydrolase inhibitors” (Bioorg Med Chem Lett, 1992).
